Source: patent US20100285156A1, “COMPOSITION FOR PREVENTING AND TREATING METABOLIC DISEASES COMPRISING THE EXTRACT OF LYSIMACHIAE FOENUM-GRAECI HERBA” (BRNSCIENCE CO., LTD, priority 2007, published 2010)

Columns and labels:
[1] = system: DIO (Diet Induced-Obesity) mice; assay: Blood metabolic disease marker levels in diet-induced obesity (DIO) mice; format: in vivo, C57BL/6 male mice
Procedure: Seven-week-old C57BL/6 male mice (obtained from Coretec Inc.) were bred in an animal facility where breeding conditions of temperature (20±1° C.), humidity (50±10%), light/dark cycle (12 hours), light intensity (150 to 300 Lux), and ventilation (10 to 20 times/hr) were maintained. Solid feed (obtained from Folas International Inc.) was freely supplied to the mice, and city water was subjected to steam sterilization and then was freely fed to the mice as drinking water. After acclimation for one week, 60% Kcal solid feed (obtained from Research Diet Inc.) was supplied to the mice, and the Lysimachiae Foenum-Graeci Herba extract was orally administered to the mice for 42 days in an amount of 30, 100, and 300 mg/kg/day. Sibutramine was administered to a positive control group in an amount of 10 mg/kg/day, and 0.5% MC (methyl cellulose) was administered to a negative control group in the same amount. The mice to which the substances were administered for six weeks were fasted for one day, and then were killed using CO2 gas. Blood gathered from the mouse abdominal vena cava was put into EDTA tubes and stored in ice, and then plasma obtained by centrifugation at 3000 rpm for 10 minutes was analyzed using a biochemical auto analyzer (AU400, Olympus, Japan). Also, organs extracted from the mice were immediately frozen by putting them into liquid nitrogen, were stored in a low-temperature refrigerator (−70° C.), and were histologically analyzed.
The contents of triglycerides and cholesterol in the extracted liver tissues were also measured, the results of which are given in FIG. 2.

[2] = system: ICR male mice given corn oil; assay: Antihyperlipidemic activity, corn oil loaded mice; format: in vivo; settings: plasma, 10 mg/kg, control drug, corn oil 1 g/kg
Procedure: Five-week-old ICR male mice (obtained from Central Lab. Animal Inc.) were bred in an animal facility where breeding conditions of temperature (20±1° C.), humidity (50±10%), light/dark cycle (12 hours), light intensity (150 to 300 Lux), and ventilation (10 to 20 times/hr) were maintained. Solid feed for laboratory animals (obtained from Cargill Agri Purina Inc.) was freely supplied to the mice, and city water was subjected to steam sterilization and then was freely fed to the mice as drinking water. After acclimation for one week, the […] Herba extract was orally administered to eight mice per group in a concentration of 100 mg/kg, and a saline was orally administered to the control group instead of the extract.

[3] = plasma, high-fat diet, 10 mg/kg/day, six weeks
[4] = positive control group, summary of Table 1

SMILES	ALT (Alanine aminotransferase) [1, 3] [IU/L]	AST (Aspartate aminotransferase) [1, 3] [IU/L]	CHO (Cholesterol) [1, 3] [mg/dL]	GLU (Glucose) [1, 3] [mg/dL]	TG (Triglyceride) [1, 3] [mg/dL]	ALT and glucose levels [1, 4]	AST and cholesterol levels [1, 4]	triglyceride level [1, 4]	CHO (Cholesterol) [2] [mg/dL]	TG (Triglyceride) [2] [mg/dL]
CC(C)CC(N(C)C)C1(c2ccc(Cl)cc2)CCC1 (stereo not shown) [Sibutramine]	64 ± 15.1	172.33 ± 58.4	187.33 ± 15	182.66 ± 27.3	91.33 ± 17.0	meaningfully reduced	not changed	rather increased	–	–
CCCCCCCCCCC[C@@H](C[C@@H]1OC(=O)[C@H]1CCCCCC)OC(=O)[C@H](CC(C)C)NC=O [Xenical]	–	–	–	–	–	–	–	–	148.83 ± 8.26	311.17 ± 45.56
